In brackets after ≈: the same amount, converted by molar mass. Like-named read-outs stand apart in the source and are kept apart here. Values belong to the compound of their own block, whether it stands above or below them.
Assay: Solubility of drugs in vegetable oils (castor oil, soybean oil)
Settings: for solubility: oil or lipid, thermodynamic from solid
Method: The solubility of flurbiprofen in different vegetable oils was measured by the addition of increasing quantities of the drug to an oil system and determination of the maximum amount that will dissolve by observation of the resultant solution and the onset of a cloudy nature or precipitation.

Solubility in soybean oil (room temperature, soybean oil): <10 mg/g
Compound: CN1CCc2cccc3c2[C@H]1Cc1ccc(O)c(O)c1-3 [Apomorphine]

Solubility in castor oil: >15 < 20 mg/g
Solubility in soybean oil: <5 mg/g
Compound: COc1ccc2c(c1)c(CC(=O)O)c(C)n2C(=O)c1ccc(Cl)cc1 [Indomethacin]

solubility (castor oil BP): 150 mg/mL (≈ 614 mM)
solubility (soybean oil BP): < 50 mg/mL
Compound: CC(C(=O)O)c1ccc(-c2ccccc2)c(F)c1 (centres unmarked) [flurbiprofen]

From patent US20010055569A1, “Nasal drug delivery composition” (West Pharmaceutical Services Drug Delivery & Clinical …, priority 1998, published 2001)
